From US10392404B2, “Compounds and compositions as kinase inhibitors” (NOVARTIS AG, priority 2014, dated 2019)

How the values were obtained:
[1] = target: T1, b-Raf (V600E) (Homo sapiens, UniProt P15056, V600E); assay: In vitro Raf activity determination (Alpha Screen, biotinylated kinase-dead MEK1 substrate), B-Raf; type: biochemical; conditions: b-Raf (V600E) approximately 4 pM; ATP 10 μM; pre-incubation 60 minutes; reaction 3 hours at room temperature
T1 construct: made in house
Procedure: (§1) Full length MEK1 with an inactivating K97R ATP binding site mutation is utilized as a RAF substrate. The MEK1 cDNA was subcloned with an N-terminal (his)6 tag into a vector for E. Coli expression. The MEK1 substrate was purified from E. Coli lysate by nickel affinity chromatography followed by anion exchange. The final MEK1 preparation was biotinylated (Pierce EZ-Link Sulfo-NHS-LC-Biotin) and concentrated.
(§2) Assay Materials: Assay buffer is 50 mM Tris, pH 7.5, 15 mM MgCl2, 0.01% Bovine Serum Albumin (BSA) and 1 mM dithiothreitol (DTT); Stop buffer is 60 mM ethylenediaminetetraacetic acid (EDTA) and 0.01% Tween® 20; b-Raf (V600E), active; biotinylated Mek, kinase dead; Alpha Screen detection kit (available from PerkinElmer™, #6760617R); Anti phospho-MEK1/2 (available from Cell Signaling Technology, Inc. #9121); 384 well low volume assay plates (White Greiner® plates).
(§3) Assay conditions: b-Raf (V600E) approximately 4 pM; c-Raf approximately 4 nM; biotinylated Mek, kinase dead approximately 10 nM; ATP 10 μM for BRAF (V600E) and 1 μM for CRAF; Pre-incubation time with compounds 60 minutes at room temperature; Reaction time 1 or 3 hours at room temperature.
(§4) Assay protocol: Raf and biotinylated Mek (kinase dead) were combined at 2× final concentrations in assay buffer (50 mM Tris, pH 7.5, 15 mM MgCl2, 0.01% BSA and 1 mM DTT) and dispensed […] per well in assay plates (Greiner white 384 well assay plates #781207) containing […] of 40× of a Raf kinase inhibitor test compound diluted in 100% DMSO. The plate was incubated for 60 minutes at room temperature. The Raf kinase activity reaction was started by the addition of […] per well of 2×ATP diluted in assay buffer. After 3 hours (b-Raf(V600E)) or 1 hour (c-Raf). The reactions were stopped and the phosphorylated product was measured using a rabbit anti-p-MEK (Cell Signaling, #9121) antibody and the Alpha Screen IgG (ProteinA) detection Kit (PerkinElmer #6760617R), by the addition of […] to the well of a mixture of the antibody (1:2000 dilution) and detection beads (1:2000 dilution of both beads) in Stop/bead buffer (25 mM EDTA, 50 mM Tris, pH 7.5, 0.01% Tween20). The additions were carried out under dark conditions to protect the detection beads from light. A lid was placed on top of the plate and incubated for 1 hour at room temperature, after which the luminescence was read on a PerkinElmer Envision instrument. The concentration of each compound for 50% inhibition (IC50) was calculated by non-linear regression using XL Fit data analysis software.

[2] = target: T2, C-RAF (Homo sapiens, UniProt P04049, Y340E/Y341E); assay: In vitro Raf activity determination (Alpha Screen, biotinylated kinase-dead MEK1 substrate), C-Raf; type: biochemical; conditions: c-Raf approximately 4 nM; ATP 1 μM; pre-incubation 60 minutes; reaction 1 hour at room temperature
T2 construct: His tag (implied by nickel chromatography) (cleaved yes); StrepII tag (cleaved yes); made in house; host or cells: Sf9 insect cells (baculovirus), CRAF and h14-3-3 zeta co-expressed; MEK1 substrate from E. coli
Source text: CRAF cDNA was subcloned as full length protein, with Y340E and Y341E activating mutations, into a baculovirus expression vector for Sf9 insect cell expression. h14-3-3 zeta cDNA was subcloned into a baculovirus expression vector for SF9 insect cell expression. Sf9 cells co-expressing both proteins were lysed and subjected to immobilized nickel chromatography and eluted with Imidazole. A second column (StrepII binding column) was used and eluted with desthiobiotin. Protein Tags were removed using Prescission enzyme and the protein was further purified using a flowthrough step to remove tags.
C-Raf TR refers to a truncated C-Raf protein, a Δ1-324 deletion mutant. C-Raf FL refers to the full-length C-Raf protein.
as §1, §2, §3, §4

T1 sequence (P15056 whole entry V600E): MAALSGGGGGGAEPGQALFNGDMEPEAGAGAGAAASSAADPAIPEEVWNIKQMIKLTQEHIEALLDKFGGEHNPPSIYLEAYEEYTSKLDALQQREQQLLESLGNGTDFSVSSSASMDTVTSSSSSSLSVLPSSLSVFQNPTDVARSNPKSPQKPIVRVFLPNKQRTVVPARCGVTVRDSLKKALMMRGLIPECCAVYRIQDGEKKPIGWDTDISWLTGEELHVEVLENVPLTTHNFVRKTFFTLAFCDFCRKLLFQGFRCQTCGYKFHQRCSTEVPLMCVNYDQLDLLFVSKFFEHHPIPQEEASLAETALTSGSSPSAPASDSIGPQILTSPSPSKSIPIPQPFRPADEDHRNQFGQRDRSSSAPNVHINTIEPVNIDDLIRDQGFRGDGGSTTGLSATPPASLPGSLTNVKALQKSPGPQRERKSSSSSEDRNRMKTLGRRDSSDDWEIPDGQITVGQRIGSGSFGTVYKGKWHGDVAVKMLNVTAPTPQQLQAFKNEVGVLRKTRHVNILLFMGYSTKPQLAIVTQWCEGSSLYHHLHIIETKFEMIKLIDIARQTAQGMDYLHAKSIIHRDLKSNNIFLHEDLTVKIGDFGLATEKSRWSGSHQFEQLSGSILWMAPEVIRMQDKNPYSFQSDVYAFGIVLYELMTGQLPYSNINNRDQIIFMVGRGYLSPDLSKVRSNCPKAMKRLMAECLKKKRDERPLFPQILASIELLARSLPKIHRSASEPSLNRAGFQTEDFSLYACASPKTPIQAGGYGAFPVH
T2 sequence (P04049 whole entry Y340E/Y341E): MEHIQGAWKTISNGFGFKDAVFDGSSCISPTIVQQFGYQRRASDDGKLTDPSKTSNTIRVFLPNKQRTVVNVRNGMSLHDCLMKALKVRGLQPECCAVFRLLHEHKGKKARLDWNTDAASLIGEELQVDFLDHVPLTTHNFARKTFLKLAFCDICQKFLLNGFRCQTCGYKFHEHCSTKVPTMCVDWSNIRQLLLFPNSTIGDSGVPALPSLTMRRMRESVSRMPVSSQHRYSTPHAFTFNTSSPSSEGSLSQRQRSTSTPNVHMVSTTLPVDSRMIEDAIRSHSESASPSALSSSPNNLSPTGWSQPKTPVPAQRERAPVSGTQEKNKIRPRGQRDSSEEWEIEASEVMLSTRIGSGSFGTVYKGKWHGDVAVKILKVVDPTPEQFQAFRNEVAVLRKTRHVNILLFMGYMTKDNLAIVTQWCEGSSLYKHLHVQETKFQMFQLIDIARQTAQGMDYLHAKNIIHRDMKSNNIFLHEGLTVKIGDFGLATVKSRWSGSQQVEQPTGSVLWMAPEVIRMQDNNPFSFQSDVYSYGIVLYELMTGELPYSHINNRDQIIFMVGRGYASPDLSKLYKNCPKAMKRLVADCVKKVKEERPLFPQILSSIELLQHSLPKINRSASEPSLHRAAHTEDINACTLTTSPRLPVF
T2 sequence (P63104 whole entry partner): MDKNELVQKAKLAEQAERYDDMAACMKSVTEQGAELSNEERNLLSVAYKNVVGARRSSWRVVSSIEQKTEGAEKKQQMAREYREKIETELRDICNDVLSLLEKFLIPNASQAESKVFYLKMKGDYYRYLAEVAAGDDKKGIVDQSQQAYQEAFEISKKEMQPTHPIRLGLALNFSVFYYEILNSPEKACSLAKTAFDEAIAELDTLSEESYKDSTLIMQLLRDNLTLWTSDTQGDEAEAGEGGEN

| IC50 [1] [nM] | IC50 [2] [nM] | Compound |
| --- | --- | --- |
| 0.9 | 0.127 | Cc1ccc(NC(=O)c2ccnc(C(F)(F)F)c2)cc1-c1cnc(N(C)C)c(C#N)c1 [Example 25, N-(3-(5-cyano-6-(dimethylamino)pyridin-3-yl)-4-methylphenyl)-2-(trifluoromethyl) isonicotinamide] |
| 21.1 | 1.65 | Cc1ccc(C(=O)Nc2cccc(C(F)(F)F)c2)cc1-c1cncc(C#N)c1 [Example 27, 3-(5-cyanopyridin-3-yl)-4-methyl-N-(3-(trifluoromethyl)phenyl)benzamide] |
| 3.4 | 0.432 | Cc1ccc(NC(=O)c2cccc(C(F)(F)F)c2)cc1-c1cnc(Cl)c(C#N)c1 [Example 33, N-(3-(6-chloro-5-cyanopyridin-3-yl)-4-methylphenyl)-3-(trifluoromethyl)benzamide] |
| 3.9 | 0.616 | Cc1ccc(NC(=O)c2cccc(C(F)(F)F)c2)cc1-c1cncc(C#N)c1 [Example 34, N-(3-(5-cyanopyridin-3-yl)-4-methylphenyl)-3-(trifluoromethyl) benzamide] |
| 11.1 | 1.95 | Cc1ccc(NC(=O)c2ccnc(C(C)(C)C#N)c2)cc1-c1cncc(C#N)c1 [Example 35, 2-(2-cyanopropan-2-yl)-N-(3-(5-cyanopyridin-3-yl)-4-methylphenyl) isonicotinamide] |
| 1.3 | 0.16 | COc1ncc(-c2cc(NC(=O)c3cccc(C(F)(F)F)c3)ccc2C)cc1C#N [Example 37, N-(3-(5-cyano-6-methoxypyridin-3-yl)-4-methylphenyl)-3-(trifluoromethyl) benzamide] |
| 4.02 | 0.429 | CCCNc1ncc(-c2cc(NC(=O)c3cccc(C(F)(F)F)c3)ccc2C)cc1C#N [Example 39, N-(3-(5-cyano-6-(propylamino)pyridin-3-yl)-4-methylphenyl)-3-(trifluoromethyl) benzamide] |
| 1.57 | 0.233 | CCCNc1ncc(-c2cc(NC(=O)c3ccnc(C(F)(F)F)c3)ccc2C)cc1C#N [Example 40, N-(3-(5-cyano-6-(propylamino)pyridin-3-yl)-4-methylphenyl)-2-(trifluoromethyl) isonicotinamide] |
| 16.4 | 1.08 | Cc1ccc(NC(=O)c2cccc(C(F)(F)F)c2)cc1-c1cc(C#N)c(N)nc1C [Example 41, N-(3-(6-amino-5-cyano-2-methylpyridin-3-yl)-4-methylphenyl)-3-(trifluoromethyl) benzamide] |
| 10.2 | 0.672 | Cc1ccc(NC(=O)c2ccnc(C(F)(F)F)c2)cc1-c1cc(C#N)c(N)nc1C [Example 42, N-(3-(6-amino-5-cyano-2-methylpyridin-3-yl)-4-methylphenyl)-2-(trifluoromethyl) isonicotinamide] |
| 17.3 | 2.8 | Cc1ncc(NC(=O)c2cccc(C(F)(F)F)c2)cc1-c1cnc(S(C)(=O)=O)c(C#N)c1 [Example 44, N-(5′-cyano-2-methyl-6′-(methylsulfonyl)-[3,3′-bipyridin]-5-yl)-3-(trifluoromethyl) benzamide] |
| 10.5 | 2.11 | Cc1ccc(NC(=O)c2ccnc(C(F)(F)F)c2)cc1-c1cnc(S(C)(=O)=O)c(C#N)c1 [Example 46, N-(3-(5-cyano-6-(methylsulfonyl)pyridin-3-yl)-4-methylphenyl)-2-(trifluoromethyl) isonicotinamide] |

The remaining lines, values behind:

| Compound | IC50 [1] [nM] | IC50 [2] [nM] |
| --- | --- | --- |
| Cc1ncc(NC(=O)c2ccnc(C(C)(C)C#N)c2)cc1-c1cnc(N(C)C)c(C#N)c1 [Example 26, N-(5′-cyano-6′-(dimethylamino)-2-methyl-[3,3′-bipyridin]-5-yl)-2-(2-cyanopropan-2-yl)isonicotinamide] | 15 | 1.78 |
| Cc1ncc(NC(=O)c2ccnc(C(C)(C)C#N)c2)cc1-c1cnc(NC(C)C)c(C#N)c1 [Example 28, N-(5′-cyano-6′-(isopropylamino)-2-methyl-[3,3′-bipyridin]-5-yl)-2-(2-cyanopropan-2-yl)isonicotinamide] | 9.82 | 2.55 |
| Cc1ccc(NC(=O)c2ccnc(C(C)(C)C#N)c2)cc1-c1cnc(N2CC(C)(O)C2)c(C#N)c1 [Example 29, N-(3-(5-cyano-6-(3-hydroxy-3-methylazetidin-1-yl)pyridin-3-yl)-4-methylphenyl)-2-(2-cyanopropan-2-yl)isonicotinamide] | 4.05 | 0.671 |
| Cc1ncc(NC(=O)c2ccnc(C(C)(C)C#N)c2)cc1-c1cnc(N2CC(C)(O)C2)c(C#N)c1 [Example 30, N-(5′-cyano-6′-(3-hydroxy-3-methylazetidin-1-yl)-2-methyl-[3,3′-bipyridin]-5-yl)-2-(2-cyanopropan-2-yl) isonicotinamide] | 28.8 | 3.69 |
| Cc1ccc(NC(=O)c2ccnc(C(C)(C)C#N)c2)cc1-c1cnc(Cl)c(C#N)c1 [Example 32, N-(3-(6-chloro-5-cyanopyridin-3-yl)-4-methylphenyl)-2-(2-cyanopropan-2-yl)isonicotinamide] | 5.73 | 1.03 |
| COc1ncc(-c2cc(NC(=O)c3ccnc(C(C)(C)C#N)c3)ccc2C)cc1C#N [Example 36, N-(3-(5-cyano-6-methoxypyridin-3-yl)-4-methylphenyl)-2-(2-cyanopropan-2-yl)isonicotinamide] | 2.76 | 0.479 |
| Cc1ncc(NC(=O)c2ccnc(C(C)(C)C#N)c2)cc1-c1cnc(N)c(C#N)c1 [Example 38, N-(6′-amino-5′-cyano-2-methyl-[3,3′-bipyridin]-5-yl)-2-(2-cyanopropan-2-yl)isonicotinamide] | 16.4 | 1.81 |
| Cc1ncc(NC(=O)c2ccnc(C(F)(F)F)c2)cc1-c1cnc(S(C)(=O)=O)c(C#N)c1 [Example 45, N-(5′-cyano-2-methyl-6′-(methylsulfonyl)-[3,3′-bipyridin]-5-yl)-2-(trifluoromethyl) isonicotinamide] | 5.95 | 1.13 |
| Cc1ncc(NC(=O)c2ccnc(C(F)(F)F)c2)cc1-c1cnc(-n2ccccc2=O)c(C#N)c1 [Example 51, N-(3′-cyano-2″- methyl-2-oxo-2H-[1,2′:5′,3″- terpyridin]-5″-yl)-2-(trifluoromethyl) isonicotinamide] | 447 | 101 |
| Cc1ncc(NC(=O)c2ccnc(C(F)(F)F)c2)cc1-c1cnc(Oc2ccccn2)c(C#N)c1 [Example 52, N-(5′-cyano-2-methyl-6′-(pyridin-2-yloxy)-[3,3′-bipyridin]-5-yl)-2-(trifluoromethyl) isonicotinamide] | 27.2 | 9.28 |
| Cc1ncc(NC(=O)c2ccnc(C(C)(C)C#N)c2)cc1-c1cnc(-n2ccccc2=O)c(C#N)c1 [Example 53, N-(3′-cyano-2″- methyl-2-oxo-2H-[1,2′:5′,3″- terpyridin]-5″-yl)-2 (2-cyanopropan-2-yl)isonicotinamide] | 285 | 64 |
| Cc1ncc(NC(=O)c2ccnc(C(C)(C)C#N)c2)cc1-c1cnc(Oc2ccccn2)c(C#N)c1 [Example 54, N-(5′-cyano-2-methyl-6′-(pyridin-2-yloxy)-[3,3′-bipyridin]-5-yl)-2-(2-cyanopropan-2-yl)isonicotinamide] | 34.7 | 7.88 |
| Cc1ncc(NC(=O)c2ccnc(C(C)(C)C#N)c2)cc1-c1cnc(N2CCS(=O)(=O)CC2)c(C#N)c1 [Example 55, N-(5′-cyano-6′-(1,1-dioxidothiomorpho-lino)-2-methyl-[3,3′-bipyridin]-5-yl)-2-(2-cyanopropan-2-yl)isonicotinamide] | 11.6 | 2.36 |
